Laboratory results taken from patent publication US20260055088A1, “HETEROCYCLIC COMPOUND, METHOD FOR PREPARING SAME, AND PHARMACEUTICAL USE THEREOF” (Jiangsu Hengrui Pharmaceuticals Co., Ltd., priority 2022, published 2026).
Read-outs that look alike come from different tables or passages of the source.

Test: Pharmacokinetic evaluation in C57 mice (i.g./i.v.)
Assay type: in vivo
Details: for Vd / AUC(0-t) / half-life / Cmax / bioavailability / CL/F: both sexes, mouse, plasma; for Vd: read-out: Apparent distribution volume Vss; for AUC(0-t): read-out: Area under curve AUC0-t; for half-life: read-out: Half-life T½ (converted); for Cmax: read-out: Plasma concentration Cmax; for bioavailability: oral, i.g. 2.0 mg/kg vs i.v. 1.0 mg/kg, read-out: Bioavailability F; for CL/F: read-out: Clearance rate CL/F; for Clearance rate CL/F: i.v.
Procedure: C57 mice were used as test animals. After intragastric (i.g.)/intravenous (i.v.) administration of the compounds of the present disclosure to C57 mice, the plasma concentrations of the compounds at different time points were determined by the LC/MS/MS method. The pharmacokinetic behaviors of the compounds of the present disclosure in C57 mice were studied, and their pharmacokinetic profiles were evaluated.
Compound 16 and compound 32.
Thirty-six C57 mice, with an equal number of males and females, provided by Vital River Laboratory Animal Technology Co., Ltd., with the production licenses SCXK (Zhejiang) 2019-0001 and SCXK (Beijing) 2019-0006. The mice were evenly divided into 4 groups of 9, with 3 mice per time point per group, and dosed by intragastric and intravenous administration.
Certain amounts of the test compounds were weighed out, and 5% DMSO+5% tween 80+90% normal saline was added to prepare 0.1 mg/mL colorless clear solutions (for the intragastric administration groups) and 0.1 mg/mL colorless clear solutions (for the intravenous administration groups).
The intragastric administration groups: The administration dose was 2.0 mg/kg, and the administration volume was 20 mL/kg.
The intravenous administration groups: The administration dose was 1.0 mg/kg, and the administration volume was 10 mL/kg.
The intragastric administration groups: 0.1-mL blood samples were collected from the orbit before administration and 0.25, 0.5, 1.0, 2.0, 4.0, 6.0, 8.0, 11.0, and 24.0 h after administration, placed into EDTA-K2 anticoagulation test tubes, and centrifuged at 10,000 rpm for 1 min (4° C.), and the plasma was separated within 1 h and stored at −80° C. before analysis. The procedures from the blood collection to the centrifugation were performed under ice-bath conditions.
The intravenous administration groups: Blood samples were collected before administration and 5 min and 0.25, 0.5, 1.0, 2.0, 4.0, 8.0, 11.0, and 24 h after administration and were treated in the same way as those collected from the intragastric administration groups.
Determination of the plasma concentrations of the test compounds in C57 mice after the compounds were administered at different concentrations: Compound 16: A 20-μL sample of the C57 mouse plasma collected at each time point after administration was taken, and 200 μL of acetonitrile containing 100 ng/mL camptothecin (internal standard) was added to each sample to precipitate protein. The mixture was vortexed for 5 min and centrifuged at 3700 rpm for 10 min. 50 μL of the supernatant was taken, and 100 μL of water was added. The mixture was vortexed for 5 min, and 1 μL of the mixture was taken for LC/MS/MS analysis. Compound 32: A 20-μL sample of the C57 mouse plasma collected at each time point after administration was taken, and 200 μL of acetonitrile containing verapamil (internal standard, 20 ng/mL) was added to each sample to precipitate protein. The mixture was vortexed for 5 min and centrifuged at 3700 rpm for 10 min. 90 μL of the supernatant was taken, and 90 μL of water was added. The mixture was vortexed for 5 min, and 0.1 μL of the mixture was taken for LC/MS/MS analysis.

Compound | Vd (iv, 1.0 mg/kg) [L/kg] | AUC(0-t) (iv, 1.0 mg/kg) [ng·h/mL] | half-life (iv, 1.0 mg/kg) [h] | Cmax (iv, 1.0 mg/kg) [ng/mL] | bioavailability [%] | AUC(0-t) (po, i.g., 2.0 mg/kg) [ng·h/mL] | CL/F (po, i.g., 2.0 mg/kg) [mL/min/kg] | half-life (po, i.g., 2.0 mg/kg) [h] | Cmax (po, i.g., 2.0 mg/kg) [ng/mL] | Clearance rate CL/F (1.0 mg/kg) [mL/min/kg]
CO/N=C(\N)c1cc(NC(=O)[C@@H]2O[C@@](C)(C(F)(F)F)[C@@H](C)[C@H]2c2ccc(F)c(F)c2OC)ccn1 [Example 16] | 9.97 | 718 | 8.1 | 377 | 87.2 | 1250 | 24.4 | 7.5 | 266 | 21.1
COc1c([C@H]2[C@H](C(=O)Nc3ccnc(/C(N)=N/O)c3)O[C@@](C)(C(F)(F)F)[C@H]2C)ccc(F)c1F [Example 32] | 3.93 | 947 | 3.3 | 616 | 82.6 | 1560 | 21.2 | 3.2 | 260 | 16.1
